From ChEMBL document CHEMBL1275260, “N-acetylcysteine-mediated modulation of bacterial antibiotic susceptibility” (2010)
Converted amounts (≈) assume the structure as drawn. The source made the active and inactive calls. The calls are words filed in the database; no cut-off is given here.

Key:
[1] = system: Escherichia coli; assay: Antibacterial activity against Escherichia coli DH5alpha in presence of 10 mM N-Acetylcysteine; assay type: functional; settings: DH5[alpha]
[2] = system: Escherichia coli; assay: Antibacterial activity against Escherichia coli DH5alpha; assay type: functional; settings: DH5[alpha]
[3] = system: Escherichia coli; assay: Antibacterial activity against Escherichia coli W3110; assay type: functional; settings: K-12 substr. W3110
[4] = system: Escherichia coli; assay: Antibacterial activity against Escherichia coli MG1655 in presence of 10 mM N-Acetylcysteine; assay type: functional
[5] = system: Escherichia coli; assay: Antibacterial activity against Escherichia coli MG1655; assay type: functional
[6] = system: Pseudomonas aeruginosa; assay: Antibacterial activity against Pseudomonas aeruginosa NCIM 5029; assay type: functional
[7] = system: Pseudomonas aeruginosa; assay: Antibacterial activity against Pseudomonas aeruginosa NCIM 5029 in presence of 10 mM N-Acetylcysteine; assay type: functional
[8] = system: Klebsiella aerogenes; assay: Antibacterial activity against Klebsiella aerogenes NCIM 2281; assay type: functional
[9] = system: Klebsiella aerogenes; assay: Antibacterial activity against Klebsiella aerogenes NCIM 2281 in presence of 10 mM N-Acetylcysteine; assay type: functional
[10] = system: Klebsiella pneumoniae; assay: Antibacterial activity against Klebsiella pneumoniae NCIM 2883 assessed as growth inhibition in presence of 10 mM N-Acetylcysteine; assay type: functional, organism-based
[11] = system: Escherichia coli; assay: Antibacterial activity against Escherichia coli W3110 in presence of 10 mM N-Acetylcysteine; assay type: functional; settings: K-12 substr. W3110

Row | Compound | MIC [1] | MIC [2] | MIC [3] | MIC [4] | MIC [5] | MIC [6] | MIC [7] | MIC [8] | MIC [9] | Activity [10] | MIC [11]
1 | CC1(C)S[C@@H]2[C@H](NC(=O)[C@H](N)c3ccccc3)C(=O)N2[C@H]1C(=O)O [AMPICILLIN] | 4 µg/mL | 4 µg/mL (≈ 11.4 µM) | 8 µg/mL (≈ 22.9 µM) | 1 µg/mL | 4 µg/mL (≈ 11.4 µM) | 1020 µg/mL (≈ 2930 µM) | 128 µg/mL | 32 µg/mL (≈ 91.6 µM) | 32 µg/mL | Active | –
2 | O=C(N[C@H](CO)[C@H](O)c1ccc([N+](=O)[O-])cc1)C(Cl)Cl [CHLORAMPHENICOL] | 2 µg/mL | 2 µg/mL (≈ 6.19 µM) | 1 µg/mL (≈ 3.09 µM) | 4 µg/mL | 4 µg/mL (≈ 12.4 µM) | 128 µg/mL (≈ 396 µM) | 128 µg/mL | 1 µg/mL (≈ 3.09 µM) | 1 µg/mL | Active | 1 µg/mL
3 | O=C(O)c1cn(C2CC2)c2cc(N3CCNCC3)c(F)cc2c1=O [CIPROFLOXACIN] | – | – | – | 0.512 µg/mL | – | 1.02 µg/mL (≈ 3.09 µM) | 2.05 µg/mL | 0.016 µg/mL (≈ 0.0483 µM) | 0.512 µg/mL | Active | 0.064 µg/mL
4 | CC[C@H]1OC(=O)[C@H](C)[C@@H](O[C@H]2C[C@@](C)(OC)[C@@H](O)[C@H](C)O2)[C@H](C)[C@@H](O[C@@H]2O[C@H](C)C[C@H](N(C)C)[C@H]2O)[C@](C)(O)C[C@@H](C)C(=O)[C@H](C)[C@@H](O)[C@]1(C)O [ERYTHROMYCIN] | 16 µg/mL | 16 µg/mL (≈ 21.8 µM) | 4 µg/mL (≈ 5.45 µM) | 1020 µg/mL | 32 µg/mL (≈ 43.6 µM) | 256 µg/mL (≈ 349 µM) | 1020 µg/mL | 32 µg/mL (≈ 43.6 µM) | 1020 µg/mL | Active | 512 µg/mL
5 | NC[C@H]1O[C@H](O[C@H]2[C@H](O)[C@@H](O[C@H]3O[C@H](CO)[C@@H](O)[C@H](N)[C@H]3O)[C@H](N)C[C@@H]2N)[C@H](O)[C@@H](O)[C@@H]1O [KANAMYCIN] | 0.5 µg/mL | 0.5 µg/mL (≈ 1.03 µM) | 1 µg/mL (≈ 2.06 µM) | 32 µg/mL | 1 µg/mL (≈ 2.06 µM) | 64 µg/mL (≈ 132 µM) | 256 µg/mL | 1 µg/mL (≈ 2.06 µM) | 16 µg/mL | Active | 16 µg/mL
6 | CC1COc2c(N3CCN(C)CC3)c(F)cc3c(=O)c(C(=O)O)cn1c23 (stereo not given) [OFLOXACIN] | – | – | – | 1.02 µg/mL | 0.032 µg/mL (≈ 0.0886 µM) | 0.256 µg/mL (≈ 0.708 µM) | 2.05 µg/mL | 0.064 µg/mL (≈ 0.177 µM) | 0.512 µg/mL | Active | 0.032 µg/mL
7 | CC1(C)S[C@@H]2[C@H](NC(=O)Cc3ccccc3)C(=O)N2[C@H]1C(=O)O [PENICILLIN G] | – | – | 64 µg/mL (≈ 191 µM) | 64 µg/mL | 64 µg/mL (≈ 191 µM) | > 4100 µg/mL | 2050 µg/mL | 64 µg/mL (≈ 191 µM) | 64 µg/mL | Active | 64 µg/mL
8 | CN[C@@H]1[C@H](O)[C@H](NC)[C@H]2O[C@@]3(O)C(=O)C[C@@H](C)O[C@H]3O[C@@H]2[C@H]1O [SPECTINOMYCIN] | 4 µg/mL | 4 µg/mL (≈ 12 µM) | 6 µg/mL (≈ 18.1 µM) | 256 µg/mL | 8 µg/mL (≈ 24.1 µM) | 256 µg/mL (≈ 770 µM) | 512 µg/mL | 8 µg/mL (≈ 24.1 µM) | 128 µg/mL | Active | 128 µg/mL
9 | CN[C@@H]1[C@H](O[C@H]2[C@H](O[C@H]3[C@H](O)[C@@H](O)[C@H](N=C(N)N)[C@@H](O)[C@@H]3N=C(N)N)O[C@@H](C)[C@]2(O)C=O)O[C@@H](CO)[C@H](O)[C@H]1O [STREPTOMYCIN] | 1 µg/mL | 1 µg/mL (≈ 1.72 µM) | 2 µg/mL (≈ 3.44 µM) | 32 µg/mL | 2 µg/mL (≈ 3.44 µM) | 8 µg/mL (≈ 13.8 µM) | 64 µg/mL | 2 µg/mL (≈ 3.44 µM) | 16 µg/mL | Active | 16 µg/mL
10 | CN(C)[C@@H]1C(O)=C(C(N)=O)C(=O)[C@@]2(O)C(O)=C3C(=O)c4c(O)cccc4[C@@](C)(O)[C@H]3C[C@@H]12 [TETRACYCLINE] | 1 µg/mL | 1 µg/mL (≈ 2.25 µM) | 0.062 µg/mL (≈ 0.14 µM) | 1 µg/mL | 1 µg/mL (≈ 2.25 µM) | 8 µg/mL (≈ 18 µM) | 8 µg/mL | 1 µg/mL (≈ 2.25 µM) | 1 µg/mL | Active | 0.062 µg/mL
